From US7105679B2, “Heteroatom containing tetracyclic derivatives as selective estrogen receptor modulators” (priority 2001, dated 2006)
Several values for one entry are separate records, joined by “and”; a condition that tells them apart may be missing. Identical values can stand only once. Like-named read-outs stand apart in the source and are kept apart here.

What was measured:
MCF-7 cells = assay: MCF-7 Cell Proliferation Assay (14C-thymidine, agonist and antagonist mode); type: cell-based; settings: number in brackets = number of tests, NA = no detected activity at test concentration
Experimental: This assay was run according to the procedure described by Welshons, et al., (Breast Cancer Res. Treat., 1987, 10(2), 169-75), with minor modification.
Briefly, MCF-7 cells (from Dr. C. Jordan, Northwestern University) were maintained in RPMI 1640 phenol red free medium (Gibco) in 10% FBS (Hyclone), supplemented with bovine insulin and non-essential amino acid (Sigma). The cells were initially treated with 4-hydoxyltamoxifen (10^−8 M) and let stand at 37° C. for 24 hours. Following this incubation with tamoxifen, the cells were treated with compounds at various concentrations.
Compounds to be tested in the agonist mode were added to the culture media at varying concentrations. Compounds to be treated in the antagonist mode were prepared similarly, and 10 nM 17β-estradiol was also added to the culture media. The cells were incubated for 24 hours at 37° C. Following this incubation, 0.1 μCi of ^14C-thymidine (56 mCi/mmol, Amersham) was added to the culture media and the cells were incubated for an additional 24 hours at 37° C. The cells were then washed twice with Hank's buffered salt solution (HBSS) (Gibco) and counted with a scintillation counter. The increase in the ^14C-thymidine in the compound treated cells relative to the vehicle control cells were reported as percent increase in cell proliferation.

[1] = biological target: T1, human estrogen receptor α (Homo sapiens, UniProt P03372); assay: Estrogen Receptor α Flash Plate Assay (binding of radiolabeled estrogen)
T1 construct: purchased Panvera
T1 sequence (P03372 1-595): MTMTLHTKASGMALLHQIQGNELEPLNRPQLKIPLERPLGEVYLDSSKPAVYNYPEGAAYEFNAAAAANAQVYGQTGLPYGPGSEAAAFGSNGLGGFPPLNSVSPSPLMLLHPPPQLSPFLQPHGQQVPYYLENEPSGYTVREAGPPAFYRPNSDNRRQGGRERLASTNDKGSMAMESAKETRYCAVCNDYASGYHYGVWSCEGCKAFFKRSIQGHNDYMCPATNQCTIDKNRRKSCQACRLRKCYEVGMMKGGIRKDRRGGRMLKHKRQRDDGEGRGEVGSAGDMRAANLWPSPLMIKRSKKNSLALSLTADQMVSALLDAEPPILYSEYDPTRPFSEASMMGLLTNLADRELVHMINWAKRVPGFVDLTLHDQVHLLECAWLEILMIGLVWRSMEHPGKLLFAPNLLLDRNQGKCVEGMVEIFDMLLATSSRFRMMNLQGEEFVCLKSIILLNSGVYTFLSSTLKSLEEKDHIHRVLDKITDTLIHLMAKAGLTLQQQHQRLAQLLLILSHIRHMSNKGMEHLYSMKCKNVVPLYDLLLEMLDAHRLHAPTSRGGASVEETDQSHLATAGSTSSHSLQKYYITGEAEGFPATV
Experimental: This assay monitors binding of radiolabeled estrogen to the estrogen receptor. It is performed on a BioMek 2000 (Beckman). Plates are read in a scintillation counter (Packard TopCount), with decreased counts an indication of binding of a compound to the receptor.
The plate was sealed and incubated at 4° C. overnight.
On day two, each well was washed three times with 200 μL PBS, pH 7.2, at room temperature. To each well was then added 98 μL radiolabeled estrogen (0.5 nM, which equals 6 nCi for a 120 Ci/mmol batch, Amersham), diluted in ESB and 5 mM dithiothreitol (DTT). To individual wells were then added 2.5 μL test compound diluted in 30% (v/v) dimethyl sulfoxide/50 mM HEPES, pH 7.5. The wells were mixed three times by aspiration, the plate sealed and incubated at room temperature for one hour. The wells were then counted for 1 min in a TopCount scintillation counter (Packard).

Ishikawa cells = assay: Alkaline Phosphatase Assay in Human Endometrial Ishikawa Cells (agonist and antagonist mode); type: cell-based; settings: number in brackets = number of tests, NA = no detected activity at test concentration; for IC50: antagonist mode with 10 nM 17β-estradiol; for EC50: agonist mode
Experimental: This assay was run according to the procedure described by Albert et a., Cancer Res, […], 50(11), 330-6-10, with minor modification.
Ishikawa cells (from ATCC) were maintained in DMEM/F12 (1:1) phenol red free medium (Gibco) supplemented with 10% calf serum (Hyclone). 24 hours prior to testing, the medium was changed to DMEM/F12 (1:1) phenol red free containing 2% calf serum.
Compounds to be tested in the agonist mode were added to the culture media at varying concentrations. Compounds to be treated in the antagonist mode were prepared similarly, and 10 nM 17β-estradiol was also added to the culture media. The cells were then incubated at 37° C. for 3 days. On the fourth day, the media was remove, 1 volume of 1× Dilution Buffer (Clontech) was added to the well followed by addition of 1 volume of Assay Buffer (Clontech). The cells were then incubated at room temperature for 5 minutes. […] The cells were incubated at room temperature for 10 minutes and then quantified on a luminometer. The increase of chemiluminescence over vehicle control was used to calculate the increase in alkaline phosphatase activity.

hER-β = biological target: T2, hER-β (Homo sapiens, UniProt Q92731); assay: Estrogen Receptor β Fluorescence Polarization Assay (binding of Fluormone ES2)
T2 construct: purchased Panvera
From the text: This assay monitors binding of a fluorescent analog of estrogen (Fluormone ES2, Panvera) to the estrogen receptor. Plates are read in a fluorometer that can be set to polarization mode. A decrease in […] relative to vehicle control is an indication of binding of a compound to the receptor.
It is crucial to avoid introduction of air bubbles into the reaction in each well of the 96 well plate throughout this procedure. (Bubbles on the surface of the reaction disrupt light flow, affecting the polarization reading.) However, it is also crucial to effectively mix the reaction components upon addition to the well.
On ice, a 2× standard mixture of Assay Buffer (Panvera), 10 nM DTT and 40 nM ES2 was prepared. On ice, a 2× reaction mixture of Assay Buffer (Panvera), and 20 nM hER-β (Panvera) and 40 nM ES2 was also prepared.
Dilutions of test compound were prepared in 30% (v/v) dimethyl sulfoxide/50 mM HEPES, pH 7.5. At this point, the dilutions were 40× the final required concentration.
The standard mixture at 50 μL was then added to each well. The reaction mixture at 48 μL was added to all wells. The compound dilution at 2.5 μL was added to the appropriate wells. The reaction mixtures were mixed using a manual pipette, a roll of aluminum foil adhesive cover was placed on the plate and the plate incubated at room temperature for 1 hour.

[2] = Homo sapiens, MCF7, antagonist mode with 10 nM 17β-estradiol
[3] = flash plate binding, 0.5 nM radiolabeled estrogen, number in brackets = No. of determinations, NA = no detected activity at test concentration, read-out: Estrogen Receptor α in μM (No.)
[4] = fluorescence polarization binding, Fluormone ES2, number in brackets = No. of determinations, NA = no detected activity at test concentration, read-out: Estrogen Receptor β in μM (No.)
[5] = Homo sapiens, MCF7, agonist mode

T2 sequence (Q92731 whole entry): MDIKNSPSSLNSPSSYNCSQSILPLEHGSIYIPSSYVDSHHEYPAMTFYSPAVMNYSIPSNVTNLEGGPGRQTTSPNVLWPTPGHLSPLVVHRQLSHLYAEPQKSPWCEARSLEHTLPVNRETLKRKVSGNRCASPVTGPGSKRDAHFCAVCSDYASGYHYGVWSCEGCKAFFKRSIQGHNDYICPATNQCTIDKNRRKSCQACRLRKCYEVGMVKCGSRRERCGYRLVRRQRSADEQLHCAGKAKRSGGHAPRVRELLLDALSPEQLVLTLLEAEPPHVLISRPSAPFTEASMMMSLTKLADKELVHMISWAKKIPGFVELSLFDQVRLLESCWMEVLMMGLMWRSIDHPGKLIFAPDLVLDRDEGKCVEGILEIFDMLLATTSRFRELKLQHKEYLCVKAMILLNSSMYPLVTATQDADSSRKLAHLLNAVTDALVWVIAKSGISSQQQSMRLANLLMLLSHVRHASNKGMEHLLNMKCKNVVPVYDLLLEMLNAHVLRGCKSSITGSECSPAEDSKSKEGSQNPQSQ

Work on `COc1ccc2c(c1)OC(c1ccc(OCCN3CCCCC3)cc1)C1=C2CCOc2cc(OC)ccc21` (single isomer, unassigned) [Compound 300, 5R*-(+)-1-{2-[4-(2,8-Dimethoxy-11,12-dihydro-5H-6,13-dioxa-benzo[3,4]cyclohepta[1,2-a]naphthalen-5-yl)-phenoxy]-ethyl}-piperidine] yielded an IC50 (MCF-7 cells; [2]) of 17400 nM, an IC50 [1] of 0.06 µM and an IC50 (Ishikawa cells; Homo sapiens) greater than 100000 nM. The IC50 (hER-β) was greater than 10 µM.
With `COc1ccc2c(c1)OCCC1=C2C(c2ccc(OCCN3CCCCC3)cc2)Oc2cc(O)ccc21` (single isomer, unassigned) [Compound 301, 2-Methoxy-5R*-(+)-[4-(2-piperidin-1-yl-ethoxy)-phenyl]-11,12-dihydro-5H-6,13-dioxa-benzo[3,4]cyclohepta[1,2-a]naphthalen-8-ol] the IC50 [1, 3] was 0.0041 µM and the IC50 (hER-β; [4]) was 0.189 µM.
`COc1ccc2c(c1)OC(c1ccc(OCCN3CCCCC3)cc1)C1=C2CCOc2cc(O)ccc21` (single isomer, unassigned) [Compound 302, 8-Methoxy-5R*-(+)-[4-(2-piperidin-1-yl-ethoxy)-phenyl]-11,12-dihydro-5H-6,13-dioxa-benzo[3,4]cyclohepta[1,2-a]naphthalen-2-ol] showed an IC50 [1, 3] of 0.0116 µM and an IC50 (hER-β; [4]) of 0.355 µM.
`Oc1ccc2c(c1)O[C@H](c1ccc(OCCN3CCCCC3)cc1)C1=C2COc2cc(O)ccc21` (stereo in doubt) [Compound 14, 5R*-(−)-[4-(2-Piperidin-1-yl-ethoxy)-phenyl]-5,11-dihydro-chromeno[4,3-c]chromene-2,8-diol] was tested, and the EC50 (MCF-7 cells; agonist mode) was greater than 10000 nM, the IC50 (MCF-7 cells; antagonist mode with 10 nM 17β-estradiol) was 5600 nM and the IC50 [1, 3] was 0.0074 µM. The EC50 (Ishikawa cells) was greater than 10000 nM, the IC50 (Ishikawa cells) was 149 nM and the IC50 (hER-β; [4]) was 0.15 µM.
`Oc1ccc2c(c1)O[C@@H](c1ccc(OCCN3CCCCC3)cc1)C1=C2COc2cc(O)ccc21` (stereo in doubt) [Compound 15, 5S*-(+)-[4-(2-Piperidin-1-yl-ethoxy)-phenyl]-5,11-dihydro-chromeno[4,3-c]chromene-2,8-diol] gave an EC50 (MCF-7 cells; agonist mode) greater than 10000 nM, an EC50 (Ishikawa cells) greater than 10000 nM and an IC50 (Ishikawa cells) of 112 nM. The IC50 (hER-β; [4]) was 0.017 µM and 0.028 µM.
For `Oc1ccc2c(c1)OC(c1ccccc1)C1=C2COc2cc(O)ccc21` (centres unmarked) [Compound 6, 5-Phenyl-5,11-dihydro-chromeno[4,3-c]chromene-2,8-diol], the EC50 (MCF-7 cells; [5]) was 97 nM, the IC50 (MCF-7 cells; [2]) was greater than 10000 nM and the EC50 (Ishikawa cells; Homo sapiens) was 33 nM. The IC50 (Ishikawa cells; Homo sapiens) was greater than 10000 nM and the IC50 (hER-β) was 0.016 µM.
With `Oc1ccc2c(c1)OC(c1ccc(OCCN3CCCCC3)cc1)C1=C2COc2cc(O)ccc21` (centres unmarked) [Compound 9, 5-[4-(2-Piperidin-1-yl-ethoxy)-phenyl]-5,11-dihydrochromeno[4,3-c]chromene-2,8-diol] the EC50 (MCF-7 cells; [5]) was greater than 10000 nM, the IC50 (MCF-7 cells; [2]) was 777 nM and the IC50 [1, 3] was 0.0023 µM. For the same compound, the EC50 (Ishikawa cells; Homo sapiens) was greater than 10000 nM, the IC50 (Ishikawa cells; Homo sapiens) was 110 nM and the IC50 (hER-β; [4]) was 0.084 µM.
`Oc1ccc2c(c1)OC(c1ccc(OCCN3CCCC3)cc1)C1=C2COc2cc(O)ccc21` (centres unmarked) [Compound 11, 5-[4-(2-Pyrrolidin-1-yl-ethoxy)-phenyl]-5,11-dihydrochromeno[4,3-c]chromene-2,8-diol] was tested, and the EC50 (MCF-7 cells; [5]) was greater than 10000 nM, the IC50 (MCF-7 cells; [2]) was 246 nM and the IC50 (Ishikawa cells; Homo sapiens) was 80 nM. For the same compound, the IC50 (hER-β) was 0.7 µM.
`Oc1ccc2c(c1)OC(c1ccc(OCCN3CCOCC3)cc1)C1=C2COc2cc(O)ccc21` (centres unmarked) [Compound 13, 5-[4-(2-Morphlin-4-yl-ethoxy)-phenyl]-5,11-dihydrochromeno[4,3-c]chromene-2,8-diol] was tested, and the EC50 (MCF-7 cells; [5]) was greater than 10000 nM, the IC50 (MCF-7 cells; [2]) was 1400 nM and the EC50 (Ishikawa cells; Homo sapiens) was greater than 10000 nM. It also gave an IC50 (Ishikawa cells; Homo sapiens) of 228 nM and an IC50 (hER-β) of 0.026 µM.
Compound `Oc1ccc2c(c1)OC(c1ccc(OCCN3CCCCCC3)cc1)C1=C2COc2cc(O)ccc21` (centres unmarked) [Compound 17, 5-[4-(2-Azepan-1-yl-ethoxy)-phenyl]-5,11-dihydrochromeno[4,3-c]chromene-2,8-diol] has an EC50 (MCF-7 cells; [5]) greater than 10000 nM, an IC50 (MCF-7 cells; [2]) of 3580 nM and an EC50 (Ishikawa cells; Homo sapiens) greater than 10000 nM. For the same compound, the IC50 (Ishikawa cells; Homo sapiens) was 513 nM and the IC50 (hER-β) was 0.031 µM.
With `CCN(CC)CCOc1ccc(C2Oc3cc(O)ccc3C3=C2c2ccc(O)cc2OC3)cc1` (centres unmarked) [Compound 19, 5-[4-(2-Diethylamino-ethoxy)-phenyl]-5,11-dihydrochromeno[4,3-c]chromene-2,8-diol] the EC50 (MCF-7 cells; [5]) was greater than 10000 nM, the IC50 (MCF-7 cells; [2]) was 713 nM and the IC50 [1, 3] was 0.0019 µM. It also gave an EC50 (Ishikawa cells; Homo sapiens) greater than 10000 nM, an IC50 (Ishikawa cells; Homo sapiens) of 250 nM and an IC50 (hER-β; [4]) of 0.099 µM.
`CN(C)CCOc1ccc(C2Oc3cc(O)ccc3C3=C2c2ccc(O)cc2OC3)cc1` (centres unmarked) [Compound 21, 5-[4-(2-Dimethylamino-ethoxy)-phenyl]-5,11-dihydrochromeno[4,3-c]chromene-2,8-diol] gave an EC50 (MCF-7 cells; [5]) greater than 10000 nM, an IC50 (MCF-7 cells; [2]) of 970 nM and an IC50 [1, 3] of 0.015 µM. For the same compound, the EC50 (Ishikawa cells; Homo sapiens) was greater than 10000 nM, the IC50 (Ishikawa cells; Homo sapiens) was 830 nM and the IC50 (hER-β; [4]) was 0.011 µM.
Compound `CN(C)c1ccc(C2Oc3cc(O)ccc3C3=C2c2ccc(O)cc2OC3)cc1` (centres unmarked) [Compound 26, 5-[4-Dimethylamino-phenyl]-5,11-dihydro-chromeno[4,3-c]chromene-2,8-diol] has an EC50 (MCF-7 cells; [5]) of 64.3 nM, an IC50 (MCF-7 cells; [2]) greater than 10000 nM and an IC50 [1, 3] of 0.014 µM. For the same compound, the EC50 (Ishikawa cells; Homo sapiens) was greater than 10000 nM, the IC50 (Ishikawa cells; Homo sapiens) was 180 nM and the IC50 (hER-β; [4]) was 0.02 µM.
With `CC(C)(C)C(=O)Oc1ccc2c(c1)OC(c1ccc(OCCN3CCCCC3)cc1)C1=C2C(O)Oc2cc(OC(=O)C(C)(C)C)ccc21` (centres unmarked) [Compound 28] the IC50 [1, 3] was 0.14 µM and the IC50 (hER-β; [4]) was 6.25 µM.
In the case of `CC1(c2ccc(OCCN3CCCCC3)cc2)Oc2cc(O)ccc2C2=C1c1ccc(O)cc1OC2` (centres unmarked) [Compound 29], the IC50 [1, 3] is reported as 0.004 µM and the IC50 (hER-β; [4]) is reported as 0.017 µM.
